# Laboratory results published in ChEMBL document CHEMBL1201862, “PubChem BioAssay data set” (2004).
# Active and inactive are the calls of the source.
# Legend:
# Tumor necrosis factor = Tumor necrosis factor (Homo sapiens, UniProt P01375); test: analog potency on TNFa NF-kB signaling – cell-based, revised, SAR follow-up (AID 2337); format: functional
# [1] = molecular target: Nucleotide-binding oligomerization domain-containing protein 1 (Homo sapiens, UniProt Q9Y239); test: blockers of NOD1 pathway activity – revised, SAR follow-up (AID 2333); format: functional
# Nucleotide-binding oligomerization domain-containing protein 1, sequence (Q9Y239 whole entry, the tested form may be a part): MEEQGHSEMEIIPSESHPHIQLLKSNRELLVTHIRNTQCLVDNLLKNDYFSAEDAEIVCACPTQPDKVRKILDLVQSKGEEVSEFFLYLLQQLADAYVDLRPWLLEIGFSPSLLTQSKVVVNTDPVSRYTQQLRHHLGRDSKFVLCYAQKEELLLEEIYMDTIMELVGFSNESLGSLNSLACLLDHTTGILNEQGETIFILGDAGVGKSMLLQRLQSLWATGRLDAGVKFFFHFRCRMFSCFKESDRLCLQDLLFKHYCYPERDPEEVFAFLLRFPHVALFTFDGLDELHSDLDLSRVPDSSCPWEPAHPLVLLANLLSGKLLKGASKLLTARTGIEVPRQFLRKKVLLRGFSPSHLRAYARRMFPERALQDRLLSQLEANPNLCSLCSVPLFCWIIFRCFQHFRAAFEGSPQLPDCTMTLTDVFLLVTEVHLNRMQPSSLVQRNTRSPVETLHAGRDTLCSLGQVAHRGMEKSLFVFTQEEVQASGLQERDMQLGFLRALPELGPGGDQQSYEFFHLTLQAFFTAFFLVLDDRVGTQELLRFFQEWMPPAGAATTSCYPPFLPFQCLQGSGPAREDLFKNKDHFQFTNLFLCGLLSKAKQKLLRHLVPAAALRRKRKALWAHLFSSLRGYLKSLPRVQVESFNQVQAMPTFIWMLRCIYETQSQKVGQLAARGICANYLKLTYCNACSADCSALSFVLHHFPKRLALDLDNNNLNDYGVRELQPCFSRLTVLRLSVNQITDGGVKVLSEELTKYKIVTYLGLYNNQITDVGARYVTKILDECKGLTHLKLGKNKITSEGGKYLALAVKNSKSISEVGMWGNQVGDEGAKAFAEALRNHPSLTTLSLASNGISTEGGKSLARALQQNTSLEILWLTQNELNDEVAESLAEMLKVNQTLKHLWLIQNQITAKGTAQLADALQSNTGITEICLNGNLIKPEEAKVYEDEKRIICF
# HEK293 [2] = test: cells; format: functional, cell-based; settings: Homo sapiens
# HEK293 [3] = test: inhibition of NOD1-driven NF-kB reporter – cell-based, luminescence, uHTS, primary screen (AID 1578); format: functional; settings: Homo sapiens
# HEK293 [4] = test: cells; format: functional, cell-based; settings: Homo sapiens; remark: listed apart in the source
# HEK293 [5] = test: NOD2 signaling inhibitors in MDP-stimulated cells, cell-based, uHTS, luminescence (AID 2001); format: functional; settings: Homo sapiens
# HEK293 [6] = test: cells; settings: Homo sapiens
# [7] = molecular target: T1, Polyadenylate-binding protein 1 (Homo sapiens, UniProt P11940); test: PABP inhibition in translation initiation, SAR follow-up (AID 435018); format: functional
# T1 sequence (P11940 whole entry): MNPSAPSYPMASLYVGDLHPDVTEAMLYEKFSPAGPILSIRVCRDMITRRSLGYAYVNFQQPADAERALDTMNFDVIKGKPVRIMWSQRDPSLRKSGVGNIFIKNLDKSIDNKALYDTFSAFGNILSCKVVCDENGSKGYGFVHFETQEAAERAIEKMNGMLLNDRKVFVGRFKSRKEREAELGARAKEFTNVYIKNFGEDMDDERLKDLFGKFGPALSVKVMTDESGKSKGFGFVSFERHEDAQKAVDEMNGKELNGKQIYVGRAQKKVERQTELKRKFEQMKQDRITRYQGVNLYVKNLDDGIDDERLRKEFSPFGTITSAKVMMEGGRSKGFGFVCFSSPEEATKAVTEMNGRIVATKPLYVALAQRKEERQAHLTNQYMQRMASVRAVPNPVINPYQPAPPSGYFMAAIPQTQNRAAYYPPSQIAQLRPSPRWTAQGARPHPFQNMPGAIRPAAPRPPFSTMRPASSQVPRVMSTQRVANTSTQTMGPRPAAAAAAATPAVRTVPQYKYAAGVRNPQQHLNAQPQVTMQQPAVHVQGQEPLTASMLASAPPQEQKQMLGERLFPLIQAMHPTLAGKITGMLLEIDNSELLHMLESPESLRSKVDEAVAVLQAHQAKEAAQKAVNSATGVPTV
# [8] = molecular target: FAD-linked sulfhydryl oxidase ALR (Homo sapiens, UniProt P55789); test: ALR-catalysed DTT oxidation blockers – biochemical, H2O2 detection, luminescence, cherry-pick, dose response (AID 493248)
# FAD-linked sulfhydryl oxidase ALR, sequence (P55789 whole entry): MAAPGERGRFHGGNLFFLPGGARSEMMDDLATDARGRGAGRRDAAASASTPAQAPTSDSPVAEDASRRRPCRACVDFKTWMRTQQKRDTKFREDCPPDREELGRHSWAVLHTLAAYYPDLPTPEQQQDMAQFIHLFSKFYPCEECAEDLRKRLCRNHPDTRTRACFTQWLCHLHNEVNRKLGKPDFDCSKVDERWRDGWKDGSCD
# [9] = molecular target: T1, Polyadenylate-binding protein 1; test: SAR analysis for the identification of translation initiation inhibitors (PABP) via an Electrophoretic Mobility Shift Dose Response Assay. [Related pubchem assays (depositor defined):AID2012, AID2014, AID2030]; format: functional
# [10] = molecular target: Eukaryotic translation initiation factor 4H (Homo sapiens, UniProt Q15056); test: inhibitors of translation initiation factor eIF4H – SAR follow-up (AID 435011); format: functional
# [11] = molecular target: T2, Alkaline phosphatase, tissue-nonspecific isozyme (Homo sapiens, UniProt P05186); test: TNAP enzyme inhibition by screening hits, dose response, selectivity assay for mouse IAP inhibitor project, biochemical, human TNAP, uHTS hits (AID 488906); format: functional
# T2 sequence (P05186 whole entry): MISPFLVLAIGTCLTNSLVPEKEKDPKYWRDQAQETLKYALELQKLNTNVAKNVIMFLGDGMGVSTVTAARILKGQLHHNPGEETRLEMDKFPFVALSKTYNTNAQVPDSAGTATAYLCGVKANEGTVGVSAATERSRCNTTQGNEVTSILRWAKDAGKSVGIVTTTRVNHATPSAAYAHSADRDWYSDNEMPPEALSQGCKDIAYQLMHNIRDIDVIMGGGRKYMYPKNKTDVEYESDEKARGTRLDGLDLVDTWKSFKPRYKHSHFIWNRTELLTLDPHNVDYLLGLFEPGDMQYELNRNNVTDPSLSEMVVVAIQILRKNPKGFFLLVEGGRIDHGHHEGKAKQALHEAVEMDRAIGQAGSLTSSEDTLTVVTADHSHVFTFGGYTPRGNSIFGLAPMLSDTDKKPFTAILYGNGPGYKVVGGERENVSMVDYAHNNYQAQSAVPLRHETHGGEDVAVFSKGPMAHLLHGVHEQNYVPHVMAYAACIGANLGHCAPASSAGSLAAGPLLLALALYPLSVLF
# [12] = molecular target: T3, Intestinal-type alkaline phosphatase (Homo sapiens, UniProt P09923); test: activation of human intestinal alkaline phosphatase – biochemical, dose response (AID 488873); format: functional
# T3 sequence (P09923 whole entry): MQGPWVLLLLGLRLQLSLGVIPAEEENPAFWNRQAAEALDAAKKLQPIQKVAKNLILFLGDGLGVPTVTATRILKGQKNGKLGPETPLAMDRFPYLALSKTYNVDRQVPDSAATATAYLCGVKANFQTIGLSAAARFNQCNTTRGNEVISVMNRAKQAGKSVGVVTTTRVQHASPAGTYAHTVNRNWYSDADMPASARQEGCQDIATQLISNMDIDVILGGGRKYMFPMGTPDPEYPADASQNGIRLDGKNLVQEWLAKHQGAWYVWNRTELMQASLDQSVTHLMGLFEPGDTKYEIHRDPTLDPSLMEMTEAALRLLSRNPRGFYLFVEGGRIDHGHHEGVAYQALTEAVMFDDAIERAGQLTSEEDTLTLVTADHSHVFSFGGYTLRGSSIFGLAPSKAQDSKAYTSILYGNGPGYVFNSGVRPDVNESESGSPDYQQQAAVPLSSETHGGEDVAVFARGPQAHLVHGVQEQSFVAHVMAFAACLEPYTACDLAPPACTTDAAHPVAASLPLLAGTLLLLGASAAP
# [13] = IC50 of Artemis nuclease activity blockers – biochemical, fluorescence intensity, dose response (AID 720701); format: functional;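 further: Artemis endonuclease enzyme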
# [14] = molecular target: T4, Intestinal-type alkaline phosphatase (Mus musculus, UniProt P24822); test: PubChem AID 488785; format: functional
# T4 sequence (P24822 whole entry): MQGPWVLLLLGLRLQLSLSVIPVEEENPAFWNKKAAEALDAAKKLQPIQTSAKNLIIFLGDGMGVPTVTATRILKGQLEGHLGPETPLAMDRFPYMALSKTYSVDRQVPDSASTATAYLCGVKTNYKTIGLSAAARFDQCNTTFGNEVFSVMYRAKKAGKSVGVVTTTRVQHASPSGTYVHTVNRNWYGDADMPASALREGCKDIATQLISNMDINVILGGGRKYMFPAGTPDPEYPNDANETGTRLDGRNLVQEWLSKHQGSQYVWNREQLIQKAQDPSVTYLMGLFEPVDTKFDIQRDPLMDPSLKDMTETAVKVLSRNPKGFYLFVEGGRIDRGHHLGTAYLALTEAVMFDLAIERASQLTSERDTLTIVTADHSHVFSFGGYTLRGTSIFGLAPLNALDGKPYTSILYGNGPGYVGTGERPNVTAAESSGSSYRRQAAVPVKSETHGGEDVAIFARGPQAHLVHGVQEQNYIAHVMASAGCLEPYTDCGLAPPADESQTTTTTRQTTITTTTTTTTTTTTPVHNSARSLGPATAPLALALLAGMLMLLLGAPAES
# [15] = molecular target: Heat shock protein HSP 90-alpha (Homo sapiens, UniProt P07900); format: functional, organism-based
# [16] = molecular target: T4, Intestinal-type alkaline phosphatase; test: PubChem AID 488874; format: functional
# [17] = molecular target: T3, Intestinal-type alkaline phosphatase; test: inhibition of human intestinal alkaline phosphatase – biochemical, luminescent, uHTS hits, set 2, dose response (AID 488793); format: functional
# Aminopeptidase N = molecular target: T5, Aminopeptidase N (Plasmodium falciparum FcB1/Columbia, UniProt O96935); test: malaria alanyl aminopeptidase activity blockers – biochemical, fluorogenic H-Leu-NHMec substrate, 1536-well (AID 1445); set-up: species or system Plasmodium falciparum 3D7, 3D7
# T5 sequence (O96935 whole entry): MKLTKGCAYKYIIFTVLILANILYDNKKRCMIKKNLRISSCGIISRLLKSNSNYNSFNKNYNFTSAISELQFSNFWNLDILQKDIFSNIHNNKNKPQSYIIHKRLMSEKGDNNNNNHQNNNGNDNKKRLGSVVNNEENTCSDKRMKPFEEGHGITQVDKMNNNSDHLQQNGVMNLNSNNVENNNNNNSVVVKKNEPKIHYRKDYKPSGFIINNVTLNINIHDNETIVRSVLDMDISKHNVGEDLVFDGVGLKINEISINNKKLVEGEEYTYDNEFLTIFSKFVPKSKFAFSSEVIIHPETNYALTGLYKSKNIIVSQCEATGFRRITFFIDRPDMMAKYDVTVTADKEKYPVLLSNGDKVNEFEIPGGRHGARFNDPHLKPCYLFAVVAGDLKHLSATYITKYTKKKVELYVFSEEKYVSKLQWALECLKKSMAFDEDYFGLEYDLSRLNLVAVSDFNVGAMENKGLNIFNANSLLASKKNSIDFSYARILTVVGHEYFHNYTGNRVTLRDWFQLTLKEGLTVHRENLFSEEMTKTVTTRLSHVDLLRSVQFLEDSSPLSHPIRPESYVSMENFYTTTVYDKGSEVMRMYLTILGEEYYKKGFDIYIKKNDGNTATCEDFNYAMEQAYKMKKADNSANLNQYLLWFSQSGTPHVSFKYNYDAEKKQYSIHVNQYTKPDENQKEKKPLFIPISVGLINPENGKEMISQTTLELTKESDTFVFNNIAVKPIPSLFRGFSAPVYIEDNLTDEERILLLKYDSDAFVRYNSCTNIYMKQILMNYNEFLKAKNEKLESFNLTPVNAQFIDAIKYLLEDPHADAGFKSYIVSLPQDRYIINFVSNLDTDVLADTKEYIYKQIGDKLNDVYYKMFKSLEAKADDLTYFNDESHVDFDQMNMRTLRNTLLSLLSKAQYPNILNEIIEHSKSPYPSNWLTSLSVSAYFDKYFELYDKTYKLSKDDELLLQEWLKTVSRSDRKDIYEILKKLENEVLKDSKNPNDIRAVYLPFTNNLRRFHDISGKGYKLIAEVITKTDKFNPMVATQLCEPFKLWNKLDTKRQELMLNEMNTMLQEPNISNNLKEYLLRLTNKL
# [18] = molecular target: 72 kDa type IV collagenase (Homo sapiens, UniProt P08253); test: Dose Response validation of uHTS RPN11 inhibitor hits using a MMP-2 Fluorescence assay.; format: functional
# 72 kDa type IV collagenase, sequence (P08253 whole entry): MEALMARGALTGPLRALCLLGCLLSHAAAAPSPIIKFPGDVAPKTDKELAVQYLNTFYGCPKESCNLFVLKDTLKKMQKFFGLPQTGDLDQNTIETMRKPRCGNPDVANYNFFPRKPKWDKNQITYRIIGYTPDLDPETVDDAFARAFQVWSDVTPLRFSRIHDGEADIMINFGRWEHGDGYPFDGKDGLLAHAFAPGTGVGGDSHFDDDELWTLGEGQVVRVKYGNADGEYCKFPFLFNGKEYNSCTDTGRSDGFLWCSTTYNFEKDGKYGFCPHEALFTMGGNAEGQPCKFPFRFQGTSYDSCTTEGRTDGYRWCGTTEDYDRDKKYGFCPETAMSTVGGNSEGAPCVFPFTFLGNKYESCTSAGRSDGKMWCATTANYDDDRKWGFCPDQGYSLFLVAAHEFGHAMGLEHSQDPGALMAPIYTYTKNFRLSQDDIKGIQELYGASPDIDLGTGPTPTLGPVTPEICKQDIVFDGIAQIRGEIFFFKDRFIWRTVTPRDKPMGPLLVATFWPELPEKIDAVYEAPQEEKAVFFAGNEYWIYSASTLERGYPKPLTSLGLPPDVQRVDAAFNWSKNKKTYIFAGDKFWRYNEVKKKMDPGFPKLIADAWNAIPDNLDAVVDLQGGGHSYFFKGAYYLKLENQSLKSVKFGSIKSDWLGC
# [19] = molecular target: T3, Intestinal-type alkaline phosphatase; test: Dose Response confirmation of uHTS hits from a small molecule inhibitors of human intestinal alkaline phosphatase via a luminescent assay. [Related pubchem assays (depositor defined):AID2544, AID2574]; format: functional
# [20] = molecular target: T2, Alkaline phosphatase, tissue-nonspecific isozyme; test: inhibition of tissue-nonspecific alkaline phosphatase – biochemical, dose response (AID 488882); format: functional
# [21] = molecular target: 26S proteasome non-ATPase regulatory subunit 14 (Homo sapiens, UniProt O00487); test: inhibition of proteasome subunit RPN11 – biochemical, fluorescence polarization, uHTS hits, confirmation (AID 602368); format: functional
# 26S proteasome non-ATPase regulatory subunit 14, sequence (O00487 whole entry): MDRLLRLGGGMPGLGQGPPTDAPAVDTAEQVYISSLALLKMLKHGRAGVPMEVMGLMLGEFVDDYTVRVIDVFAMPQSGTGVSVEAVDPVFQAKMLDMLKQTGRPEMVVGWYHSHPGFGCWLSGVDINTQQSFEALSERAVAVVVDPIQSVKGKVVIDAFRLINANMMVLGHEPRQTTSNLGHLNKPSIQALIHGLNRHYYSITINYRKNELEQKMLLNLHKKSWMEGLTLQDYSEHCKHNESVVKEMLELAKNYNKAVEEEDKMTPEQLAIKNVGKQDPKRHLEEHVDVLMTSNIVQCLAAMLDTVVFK
# Prothrombin = Prothrombin (Bos taurus, UniProt P00735); test: thrombin protease inhibitors – biochemical, fluorescence polarization, uHTS hits, dose response (AID 602369); format: functional
# Tumor necrosis factor, sequence (P01375 whole entry, the tested form may be a part): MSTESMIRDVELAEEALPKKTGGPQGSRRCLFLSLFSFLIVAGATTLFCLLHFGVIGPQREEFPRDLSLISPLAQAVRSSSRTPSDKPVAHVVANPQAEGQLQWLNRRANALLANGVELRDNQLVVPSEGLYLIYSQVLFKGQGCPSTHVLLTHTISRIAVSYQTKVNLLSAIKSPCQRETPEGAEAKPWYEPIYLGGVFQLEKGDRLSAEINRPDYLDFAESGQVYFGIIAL
compound,measurement,setting,value
O=C(Nc1sc2c(c1C(=O)O)CCCC2)c1ccc(Cl)cc1,IC50,Tumor necrosis factor,13.4 µM (active)
same,IC50,[1],2.86 µM (active)
same,IC50,HEK293 [2],> 20 µM (inactive)
same,EC50,HEK293 [3],6.58 µM (active)
same,IC50,HEK293 [4],> 20 µM (inactive)
same,IC50,HEK293 [5],16 µM (inactive)
same,IC50,HEK293 [6],> 20 µM (inactive)
COc1ccc(N2Cc3cccc(C(=O)NC(C)CCc4ccco4)c3C2=O)cc1 (centres undefined),IC50,[7],> 100 µM (inactive)
same,AC50,[8],1.06 µM (active)
same,IC50,[9],10 µM (active)
same,IC50,[10],5.42 µM (active)
O=C(O)CC(C(=O)O)N1C(=O)/C(=C/c2ccc(-c3nc4ccccc4s3)o2)SC1=S (centres undefined),IC50,[11],24.3 µM (active)
same,EC50,[12],> 100 µM (inactive)
same,IC50,[13],> 20 µM (inactive)
same,IC50,[14],13.4 µM (active)
O=C(NN1C(=O)/C(=C/c2ccc(O)c([N+](=O)[O-])c2)SC1=S)c1ccccc1Cl,AC50,[15],2.86 µM (active)
same,IC50,[16],10.6 µM (active)
same,IC50,[17],22.9 µM (active)
same,IC50,Aminopeptidase N,71.1 µM (active)
same,IC50,[18],82.1 µM (active)
same,IC50,[19],25.4 µM (inactive)
same,IC50,[20],29.8 µM (active)
same,IC50,[21],39.7 µM (active)
same,IC50,Prothrombin,32 µM (active)
